Laboratory results as given in the Deep4Chem optical property database.

Assay: solvent given as SMILES

SMILES: CN(C)CCN(Cc1c2ccccc2c(CN(CCN(C)C)c2ccc([N+](=O)[O-])cc2[N+](=O)[O-])c2ccccc12)c1ccc([N+](=O)[O-])cc1[N+](=O)[O-]
- absorption maximum (in C1CCCCC1): 340 nm
- absorption maximum (in C1CCOC1): 351 nm
- absorption maximum (in CC#N): 347 nm
- absorption maximum (in CC(C)=O): 352 nm
- absorption maximum (in CCO): 341 nm
- absorption maximum (in CN(C)C=O): 340 nm
- absorption maximum (in CO): 341 nm
- absorption maximum (in ClC(Cl)Cl): 342 nm

SMILES: c1ccc2c(c1)Nc1ccccc1B2c1c2ccccc2cc2ccccc12
- absorption maximum (in ClCCl): 394 nm
- absorption maximum (in c1ccccc1): 394 nm

SMILES: CCN(CC)c1ccc2cc(-c3nc4cc(C(=O)Nc5ccc(C)cc5[N+](=O)[O-])ccc4o3)c(=O)oc2c1
- absorption maximum (in ClCCl): 445 nm

SMILES: O=c1c2ccccc2sc2ccc(-n3c4ccccc4c4ccccc43)cc12
- absorption maximum (in C1CCOC1): 388 nm
- absorption maximum (in CCCCCC): 388 nm
- absorption maximum (in Cc1ccccc1): 388 nm
- absorption maximum (in ClC(Cl)Cl): 388 nm
- absorption maximum (in ClCCl): 388 nm

SMILES: Cc1cc2ccccc2c2c1c1ccccc1n2-c1ncccn1
- absorption maximum (in ClCCl): 303 nm

SMILES: Nc1ccc2cc3ccccc3cc2c1
- absorption maximum (in C1CCCCC1): 397.61 nm

SMILES: O=C(c1ccc(-n2c3ccc(-c4ccccc4)cc3c3cc(-c4ccccc4)ccc32)cc1)c1ccc(-n2c3ccc(-c4ccccc4)cc3c3cc(-c4ccccc4)ccc32)cc1
- absorption maximum (in Cc1ccccc1): 370 nm

SMILES: O=C1c2ccc(N(c3ccc(-c4ccccc4)cc3)c3ccc(-c4ccccc4)cc3)cc2C(=O)c2ccc(N(c3ccc(-c4ccccc4)cc3)c3ccc(-c4ccccc4)cc3)cc21
- absorption maximum (in Cc1ccccc1): 464 nm

SMILES: COc1ccc(-c2csc(/C(C#N)=N\Nc3ccc(C#N)cc3)n2)cc1
- absorption maximum (in CC#N): 401 nm
- absorption maximum (in CCO): 403 nm
- absorption maximum (in CN(C)C=O): 481 nm
- absorption maximum (in Cc1ccccc1): 405 nm
- absorption maximum (in ClCCl): 404 nm

SMILES: Cc1ccc2c(c1)C1(c3ccccc3-c3ccccc31)c1cc(C)ccc1N2c1ccc2c(c1)Sc1ccccc1P2(=S)c1ccccc1 (configuration not stated)
- absorption maximum (in Cc1ccccc1): 311.25 nm

SMILES: CCc1ccc(-n2c3ccccc3c3cc4c(cc32)c2ccccc2n4-c2ccc(CC)s2)s1
- absorption maximum (in ClC(Cl)Cl): 398 nm

SMILES: CCCCOc1c(C=C2N(C)c3ccccc3C2(C)C)c(=O)c1=S
- absorption maximum (in CCO): 500 nm

SMILES: CCOCCOCCOC(=O)/C=C/C1=CC2=C(c3c(C)cc(C)cc3C)c3cccn3[B-](F)(F)[N+]2=C1
- absorption maximum (in ClCCl): 536 nm

SMILES: CC(C)(C)c1cc2ccc3c(N(c4ccccc4)c4ccccc4)cc(N(c4ccccc4)c4ccccc4)c4ccc(c1)c2c34
- absorption maximum (in ClCCl): 414 nm

SMILES: CC1=C(c2cccs2)C(C)=[N+]2C1=C(c1ccc(OS(=O)(=O)c3ccc([N+](=O)[O-])cc3[N+](=O)[O-])cc1)c1c(C)c(-c3cccs3)c(C)n1[B-]2(F)F
- absorption maximum (in CO): 526 nm
- absorption maximum (in Cc1ccccc1): 535 nm
- absorption maximum (in ClCCl): 533 nm

SMILES: O=C1Nc2ccccc2/C1=C/C(=O)c1ccc(O)cc1
- absorption maximum (in C1CCCCC1): 333 nm
- absorption maximum (in C1COCCO1): 334 nm
- absorption maximum (in CC#N): 332 nm
- absorption maximum (in CC(C)(C)O): 336 nm
- absorption maximum (in CC(C)O): 338 nm
- absorption maximum (in CCCCCC): 331 nm
- absorption maximum (in CCCCO): 337 nm
- absorption maximum (in CCOC(C)=O): 334 nm
- absorption maximum (in CN(C)C=O): 337 nm
- absorption maximum (in CO): 336 nm
- absorption maximum (in ClCCl): 336 nm
- absorption maximum (in O): 338 nm

SMILES: c1ccc2c(c1)c1ccccc1n2-c1ccc2cc(-c3ccc(-c4ccc(-c5cc6ccc(-n7c8ccccc8c8ccccc87)cc6o5)cc4)cc3)oc2c1
- absorption maximum (in Cc1ccccc1): 369 nm
- absorption maximum (in c1ccc2c(c1)c1ccccc1n2-c1ccc(-c2ccc(-n3c4ccccc4c4ccccc43)cc2)cc1): 380 nm

SMILES: CC(C)(C)NC(=O)c1cccc2ccc3c4cc(F)ccc4c4ccc(F)cc4c3c12
- absorption maximum (in ClCCl): 334 nm

SMILES: COc1ccc(C(=O)/C=C2\C(=O)Nc3ccccc32)c(OC)c1
- absorption maximum (in C1CCCCC1): 334 nm
- absorption maximum (in C1COCCO1): 336 nm
- absorption maximum (in CC#N): 328 nm
- absorption maximum (in CC(C)(C)O): 338 nm
- absorption maximum (in CC(C)O): 338 nm
- absorption maximum (in CCCCCC): 333 nm
- absorption maximum (in CCCCO): 340 nm
- absorption maximum (in CCOC(C)=O): 334 nm
- absorption maximum (in CN(C)C=O): 338 nm
- absorption maximum (in CO): 343 nm
- absorption maximum (in ClCCl): 331 nm
- absorption maximum (in O): 330 nm

SMILES: N#Cc1cc(/C=C/c2ccc(N(c3ccccc3)c3ccccc3)cc2)ccc1/C=C/c1ccc(/C=C/c2ccc(N(c3ccccc3)c3ccccc3)cc2)cc1
- absorption maximum (in ClCCl): 433 nm

SMILES: COc1cc(C=C(C#Cc2ccccc2)C#Cc2ccccc2)c(OC)cc1C=C(C#Cc1ccccc1)C#Cc1ccccc1
- absorption maximum (in ClC(Cl)Cl): 455 nm

SMILES: C(#Cc1ccccc1)c1ccccc1
- absorption maximum (in CO): 298 nm
- absorption maximum (in ClC(Cl)Cl): 299 nm
- absorption maximum (in ClCCl): 299 nm

SMILES: CNC(=O)[C@H](C)NC(=O)c1cccc2c1C#Cc1c(NC(=O)[C@@H](NC(C)=O)C(C)C)cccc1OCCCO2
- absorption maximum (in CC#N): 324 nm
- absorption maximum (in ClCCl): 336 nm
